Assay results published in the NIST ThermoML archive (doi:10.1007/s10765-013-1469-0).

Assay: refractive index (Na D-line) (dimensionless); xn = mol fraction of the nth substance listed
Settings: 101 kPa, Liquid, Standard Abbe refractometry

COCCOCCOCCOCCOC [2,5,8,11,14-pentaoxapentadecane] + CCCCO
refractive index
Settings	288.15 K	293.15 K	298.15 K	303.15 K	308.15 K	313.15 K	318.15 K	323.15 K	328.15 K	333.15 K
x2 = 0	1.4345	1.43238	1.43027	1.42815	1.42603	1.42394	1.42183	1.41973	1.41765	1.41553
x2 = 0.1013	1.43292	1.43079	1.42868	1.42658	1.42448	1.42237	1.42027	1.41818	1.41611	1.41403
x2 = 0.2236	1.43083	1.42871	1.42659	1.42448	1.42237	1.42024	1.41815	1.41604	1.41396	1.41186
x2 = 0.3036	1.42941	1.4273	1.42517	1.42306	1.42094	1.41881	1.41673	1.41461	1.41251	1.4104
x2 = 0.4131	1.42694	1.42482	1.42271	1.42058	1.41846	1.41635	1.41424	1.4121	1.40998	1.40784
x2 = 0.5065	1.42465	1.42256	1.42044	1.4183	1.41616	1.41403	1.41192	1.40977	1.40763	1.40547
x2 = 0.5996	1.42188	1.41981	1.41772	1.41558	1.41346	1.41132	1.40924	1.40709	1.40491	1.40273
x2 = 0.7007	1.41822	1.41614	1.41408	1.41199	1.40985	1.40775	1.40562	1.40351	1.40133	1.39917
x2 = 0.7991	1.41381	1.41175	1.40972	1.40769	1.40559	1.40349	1.40133	1.39924	1.39712	1.39497
x2 = 0.8996	1.40823	1.40619	1.40418	1.40216	1.40005	1.39795	1.39583	1.39374	1.3916	1.38936
